Assays:
[1] = target: antibody serum to synthetic sCT; assay: Radioimmunoassay with antibodies to synthetic sCT, inhibition of [125I]sCT binding; set-up: species or system goat
Description: The concentration of hCT 2 is determined radioimmunologically in a concentration series. 10, 20, 50 and 100 μl, respectively, of the HPLC fractions, which have been aftertreated as described above, are preincubated for 3 days at 4° C. together with 100 μl of antibody serum to synthetic sCT (Sandoz AG, Basle, Switzerland) in an immunoassay buffer with a total volume of 300 μl (immunoassay buffer: 0.05M phosphate, pH 7.5, 10% of human serum containing no detectable amounts of immunoreactive sCT), and, after the addition of 200 μl of assay buffer having 15,000 dpm of [^125 I]sCT (specific activity 600 Ci/mmol), subsequently incubated for a further 3 days at 4° C. The labelling of sCT with ^125 I is performed with Chloramin-T (Eastman Kodak, Rochester, USA) essentially according to the method of W. M. Hunter and F. C.
The above-mentioned antibody serum is obtained as follows: The antibodies are produced in a 25 kg goat after primary immunisation with 200 μg of sCT (see above) as antigen, and reimmunisation with 100 μg of the same antigen 30 days after the primary immunisation. For immunisation, sCT is dissolved in 0.01M acetic acid (1 mg/ml), the solution is mixed with 2 percent by weight of solid aluminium hydroxide (Alhydrogel, Superfos Export Co. a/s Copenhagen, Denmark) and the mixture is suspended in an equal volume of complete Freund's adjuvant (Difco Laboratories, Detroit, Mich., USA). This suspension is produced in an Omnimixer (Sorvall) at 4° C. at the maximum mixing rate. 0.5-1.0 ml of suspension is drawn up into disposable syringes (Primo 1 ml, Asik I/S, Denmark), and administered on each leg subcutaneously in the region of the subaxillary lymph nodes. Ten days after the abovementioned reimmunisation, 50-80 ml of blood containing the desired antibodies against sCT are withdrawn from the jugular vein into heparinised tubes, and the plasma obtained is stored at -20° C. in 3-5 ml portions.
(§1) The quantity of antibodies obtained is estimated by measurement of the binding of the withdrawn plasma to [^125 I] sCT. Antibody-bound and free [^125 I]sCT are separated by means of charcoal coated with dextran, in the main according to the method of V. Herbert, K.-S. Lau, C. W. Gottlieb and S. J. Bleicher [J. Clin. Endocrinol. Metab. 25, 1375-1384 (1965)]. The same method is used for the detection of antibodies in human serum.

[2] = Detection of antibodies able to react with sCT in human serum (binding to [125I]sCT); conditions: verified with radioimmunoassay
Source text: (c) in the human serum no initiation of the formation of detectable amounts of antibodies which are able to react with sCT, the binding to [^125 I]sCT having a specific activity of 600 Ci/mmol being used for verfying this evidence;
The substance hCT 2 differs from the known hCT in the aforementioned HPLC system by virtue of a clearly different retention time; on the other hand, hCT 2 has a retention time practically identical to that of sCT. In the aforementioned gel system, the elution volume of hCT 2 differs from that of hCT, but is practically identical to that of sCT. These facts indicate that hCT 2 with respect to the amino acid composition, even though not necessarily with respect to the amino acid sequence, is more closely related to sCT than to hCT. With regard to immunology, however, hCT 2 differs greatly from sCT.
as §1

SMILES | amount not giving comparable (half maximum) inhibition of the binding of [125I]sCT to the antibodies ([1]; antibody final dilution 1:25,000) [µg] | formation of antibodies in the human serum [2] | half maximum inhibition of the binding of [125I]sCT to the antibodies ([1]; antibody final dilution 1:25,000, 15,000 dpm [125I]sCT, 4° C., amount per tube) | concentration at which the antibodies react with sCT compared with hCT, which they do not recognise ([1]; lower concentration for sCT) | half maximum inhibition of the binding of [125I]sCT to the antibodies ([1]; same value given in pmol) [pmol]
CC[C@H](C)[C@H](NC(=O)[C@H](C)NC(=O)[C@@H](NC(=O)[C@H](CCC(N)=O)NC(=O)[C@@H]1CCCN1C(=O)[C@H](Cc1ccccc1)NC(=O)[C@@H](NC(=O)[C@H](Cc1c[nH]cn1)NC(=O)[C@H](Cc1ccccc1)NC(=O)[C@H](CCCCN)NC(=O)[C@H](CC(N)=O)NC(=O)[C@H](Cc1ccccc1)NC(=O)[C@H](CC(=O)O)NC(=O)[C@H](CCC(N)=O)NC(=O)[C@@H](NC(=O)[C@H](Cc1ccc(O)cc1)NC(=O)[C@@H](NC(=O)CNC(=O)[C@H](CC(C)C)NC(=O)[C@H](CCSC)NC(=O)[C@@H]1CSSC[C@H](N)C(=O)NCC(=O)N[C@@H](CC(N)=O)C(=O)N[C@@H](CC(C)C)C(=O)N[C@@H](CO)C(=O)N[C@@H]([C@@H](C)O)C(=O)N1)[C@@H](C)O)[C@@H](C)O)[C@@H](C)O)[C@@H](C)O)C(=O)NCC(=O)N[C@H](C(=O)NCC(=O)N[C@@H](C)C(=O)N1CCC[C@H]1C(N)=O)C(C)C [hCT, human calcitonin-(1-32)] | > 10 |  |  |  | 
CC(C)C[C@H](NC(=O)[C@H](CCCCN)NC(=O)CNC(=O)[C@H](CC(C)C)NC(=O)[C@@H](NC(=O)[C@@H]1CSSC[C@H](N)C(=O)N[C@@H](CO)C(=O)N[C@@H](CC(N)=O)C(=O)N[C@@H](CC(C)C)C(=O)N[C@@H](CO)C(=O)N[C@@H]([C@@H](C)O)C(=O)N1)C(C)C)C(=O)N[C@@H](CO)C(=O)N[C@@H](CCC(N)=O)C(=O)N[C@@H](CCC(=O)O)C(=O)N[C@@H](CC(C)C)C(=O)N[C@@H](Cc1c[nH]cn1)C(=O)N[C@@H](CCCCN)C(=O)N[C@@H](CC(C)C)C(=O)N[C@@H](CCC(N)=O)C(=O)N[C@H](C(=O)N[C@@H](Cc1ccc(O)cc1)C(=O)N1CCC[C@H]1C(=O)N[C@@H](CCCNC(=N)N)C(=O)N[C@H](C(=O)N[C@@H](CC(N)=O)C(=O)N[C@H](C(=O)NCC(=O)N[C@@H](CO)C(=O)NCC(=O)N[C@H](C(=O)N1CCC[C@H]1C(N)=O)[C@@H](C)O)[C@@H](C)O)[C@@H](C)O)[C@@H](C)O [sCT, salmon calcitonin-(1-32)] |  | produces in the human serum an antibody response | about 100 pg | ≤ 10^5 fold | 0.03

Source: US4845080A, “Human calcitonin peptide with salmon calcitonin-like characteristics” (Ciba-Geigy Corporation, priority 1983, dated 1989)
